Read-outs that look alike come from different tables or passages of the source.
Tests used:
Plasmodium falciparum = assay: blood stage hypoxanthine incorporation (HXI) cell assay; type: cell-based; conditions: read-out: Pf HXI pEC50 (converted)
From the text: [21] Full details on biochemical assay and anti-malarial hypoxanthine incorporation (cell based) assay procedures can be found in reference 16.

[1] = mouse liver microsomal turnover; type: in vitro ADME; conditions: % remaining after 30 min incubation with mouse liver microsomes
Method: Microsomal turnover data was obtained using mouse liver microsomes (MLM) obtained from BD Biosciences. The compounds are pre-incubated at 37 °C for 5 minutes with the microsomes and the reaction was initiated by adding an equal volume of NADPH generating solution, also obtained from BD Biosciences. The final compound concentration in the incubation is 1 μM, and the microsomal protein concentration is 0.2 mg/mL. A sample is taken at t=0 and quenched with 2x volume of ice-cold methanol containing an internal standard reference compound (carbamazepine). The reaction is agitated at 37 °C for 30 minutes, when a further sample was taken and quenched in an identical fashion. The samples were centrifuged at 10000 rpm for 10 minutes and the supernatant taken for analysis in triplicate by LC-MS/MS (Agilent Technologies G6410 series, triple quadrupole with MM-ESI ion source) using optimised multiple reaction monitoring (MRM) scans and a standard column gradient on an Acquity UPLC BEH C8 1.7μm column, running acetonitrile and water with 0.05% acetic acid as the mobile phase. The % turnover is obtained by calculating the percentage difference of the peak areas, normalised to the internal standard, at t=0 and t=30. Verapamil is used as the standard compound for this assay.

Kinetic solubility = type: physicochemical
Method: The kinetic solubility was measured by diluting a small amount of 10 mM DMSO stock into PBS pH7.4 in a filtration plate at a target concentration of 200 μM giving a final solution composition of 98:2 PBS:DMSO. Each compound was run in triplicate on the same plate with two standard compounds, verapamil and ketoconazole, included per plate. The filtration plate was shaken at 500 rpm for 90 minutes and then filtered under vacuum. The filtrate was sampled and diluted with a DMSO:PBS mixture in a flat bottomed UV plate to give a solution with a composition of PBS:DMSO 80:20. A dilution series for each compound was then created in flat bottomed UV plates in PBS:DMSO 80:20 with concentrations 200 μM, 100 μM, 50 μM, 25 μM, 12.5 μM & […]. The UV absorbance for these solutions was read across 230-400 nm at 1 nm intervals using a TECAN Safire II plate reader and a suitable UV wavelength chosen around the UV maximum of each compound.

PKG1β(h) = molecular target: T1, PKG1β(h) (Homo sapiens, UniProt Q13976); assay: Millipore Kinase Profiler assay, PKG1β(h); type: biochemical; conditions: for pIC50: PKG1β(h); for activity against human orthologue of PKG: up to a top assay concentration of 1 µM
T1 construct: purchased Millipore (Kinase Profiler service, tested externally)
T1 sequence (Q13976 1-686 isoform Q13976-2): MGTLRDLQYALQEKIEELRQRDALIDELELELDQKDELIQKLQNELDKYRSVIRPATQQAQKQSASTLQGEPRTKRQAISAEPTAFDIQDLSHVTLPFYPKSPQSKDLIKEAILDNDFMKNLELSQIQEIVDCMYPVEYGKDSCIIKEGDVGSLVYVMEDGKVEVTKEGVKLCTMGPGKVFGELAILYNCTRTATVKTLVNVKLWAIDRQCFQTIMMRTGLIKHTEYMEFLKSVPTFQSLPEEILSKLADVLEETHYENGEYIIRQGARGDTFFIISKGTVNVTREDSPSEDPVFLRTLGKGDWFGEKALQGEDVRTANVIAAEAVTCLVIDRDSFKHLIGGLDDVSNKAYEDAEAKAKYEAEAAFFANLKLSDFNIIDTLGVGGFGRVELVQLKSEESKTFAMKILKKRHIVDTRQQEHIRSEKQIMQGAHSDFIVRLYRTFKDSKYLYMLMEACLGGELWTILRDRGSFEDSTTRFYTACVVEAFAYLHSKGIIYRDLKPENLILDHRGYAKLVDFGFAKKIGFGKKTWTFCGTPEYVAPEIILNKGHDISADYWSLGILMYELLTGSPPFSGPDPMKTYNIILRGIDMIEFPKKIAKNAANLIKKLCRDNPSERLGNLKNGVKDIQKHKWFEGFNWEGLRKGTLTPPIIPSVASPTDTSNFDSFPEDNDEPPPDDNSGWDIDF

PKG1α(h) = molecular target: T2, PKG1α(h) (Homo sapiens, UniProt Q13976); assay: Millipore Kinase Profiler assay, PKG1α(h); type: biochemical; conditions: for pIC50: PKG1α(h); for activity against human orthologue of PKG: up to a top assay concentration of 1 µM
T2 construct: purchased Millipore (Kinase Profiler service, tested externally)
T2 sequence (Q13976 1-671): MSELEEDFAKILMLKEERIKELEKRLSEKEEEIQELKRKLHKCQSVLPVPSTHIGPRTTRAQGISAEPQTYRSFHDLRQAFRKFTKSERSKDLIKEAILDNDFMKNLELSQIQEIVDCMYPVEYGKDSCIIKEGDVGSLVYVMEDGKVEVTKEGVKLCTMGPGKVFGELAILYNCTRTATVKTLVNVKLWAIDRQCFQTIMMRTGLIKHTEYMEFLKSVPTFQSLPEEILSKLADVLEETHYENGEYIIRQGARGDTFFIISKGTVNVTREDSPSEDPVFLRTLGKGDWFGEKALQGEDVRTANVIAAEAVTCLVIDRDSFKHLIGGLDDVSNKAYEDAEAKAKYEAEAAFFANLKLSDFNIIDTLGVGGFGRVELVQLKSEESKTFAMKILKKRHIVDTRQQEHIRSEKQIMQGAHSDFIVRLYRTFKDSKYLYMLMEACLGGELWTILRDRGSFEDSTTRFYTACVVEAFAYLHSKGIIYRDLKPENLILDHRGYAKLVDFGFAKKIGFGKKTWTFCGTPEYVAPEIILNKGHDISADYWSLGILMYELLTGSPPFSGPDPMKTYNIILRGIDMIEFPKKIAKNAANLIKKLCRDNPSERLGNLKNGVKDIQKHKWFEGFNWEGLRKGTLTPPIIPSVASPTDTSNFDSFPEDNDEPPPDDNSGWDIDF

[2] = system: HepG2 human liver-derived cells; assay: in vitro cytotoxicity assay in HepG2 cells; type: cell-based; conditions: for EC50: Homo sapiens, read-out: HepG2 pEC50 (converted)
PfPKG = PfPKG (Plasmodium falciparum, UniProt Q8I719); assay: biochemical; conditions: for IC50: biochemical assay, read-out: PfPKG pIC50 (converted); for LLE (pIC50 – mLogD): PfPKG pIC50 minus measured logD
Sequence of PfPKG (Q8I719 whole entry): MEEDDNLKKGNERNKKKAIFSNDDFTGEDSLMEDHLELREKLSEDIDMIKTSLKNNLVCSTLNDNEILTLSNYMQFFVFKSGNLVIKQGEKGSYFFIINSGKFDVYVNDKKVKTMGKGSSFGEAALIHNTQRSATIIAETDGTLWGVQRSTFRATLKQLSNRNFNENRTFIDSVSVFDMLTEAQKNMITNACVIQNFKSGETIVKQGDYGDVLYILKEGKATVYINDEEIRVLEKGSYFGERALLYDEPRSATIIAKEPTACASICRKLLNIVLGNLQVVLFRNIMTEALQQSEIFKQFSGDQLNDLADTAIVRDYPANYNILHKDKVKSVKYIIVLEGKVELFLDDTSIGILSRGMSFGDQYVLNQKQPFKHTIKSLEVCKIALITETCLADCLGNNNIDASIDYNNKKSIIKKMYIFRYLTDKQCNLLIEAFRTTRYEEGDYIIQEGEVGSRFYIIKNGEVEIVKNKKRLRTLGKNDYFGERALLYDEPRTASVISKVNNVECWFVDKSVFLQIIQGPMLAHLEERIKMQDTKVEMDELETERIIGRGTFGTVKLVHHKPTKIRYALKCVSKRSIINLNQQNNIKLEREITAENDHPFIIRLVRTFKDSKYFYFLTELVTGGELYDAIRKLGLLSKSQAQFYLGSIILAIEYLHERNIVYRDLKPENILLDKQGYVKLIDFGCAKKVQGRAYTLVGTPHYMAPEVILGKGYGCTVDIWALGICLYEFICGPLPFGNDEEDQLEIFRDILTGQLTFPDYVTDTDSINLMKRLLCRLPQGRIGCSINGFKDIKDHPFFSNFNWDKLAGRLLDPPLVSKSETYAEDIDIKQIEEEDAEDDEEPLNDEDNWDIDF

[3] = Measured logD (shake flask); type: physicochemical; conditions: for mLogD: octanol/PBS
human kinase panel = assay: Kinase selectivity profiling against a human kinase panel; type: biochemical; conditions: single 1 µM concentration
Method: [29] Kinase selectivity profiling was carried out at the MRC Protein Phosphorylation Unit at the University of Dundee, U.K. at a single concentration of 1 µM for all three compounds.

[4] = blood stage hypoxanthine incorporation cell assay
[5] = HepG2, concentration at which half of cells remained viable at 48 h

Row | SMILES | MLM % rem [1] | IC50 (PfPKG) | LLE (pIC50 – mLogD) (PfPKG) | mLogD [3] | EC50 (Plasmodium falciparum; [4]) | other results
1 | CN1CCN(c2ccc(Nc3nccc(-c4c(-c5ccc(F)cc5)nc5ccccn45)n3)cc2)CC1 [Compound 1] | 65% |  |  |  |  | EC50 (Plasmodium falciparum): 115 nM
2 | CN(C)Cc1ccn2c(-c3ccnc(N)n3)c(-c3ccc(F)cc3)nc2c1 [Compound 2] |  |  |  |  |  | Kin sol (Kinetic solubility; kinetic solubility, PBS pH7.4): 200 µM; pIC50 (PKG1β(h)): < 6; activity against human orthologue of PKG (PKG1β(h)): no activity; pIC50 (PKG1α(h)): < 6; activity against human orthologue of PKG (PKG1α(h)): no activity; EC50 ([2]; HepG2, 48 h): > 20000 nM; EC50 (Plasmodium falciparum): 363 nM
3 | Cc1nc2cc(CN(C)C)ccn2c1-c1ccnc(N)n1 [Compound 7] |  | 57.5 nM |  |  |  | 
4 | CN(C)Cc1ccn2c(-c3ccnc(N)n3)c(C(F)(F)F)nc2c1 [Compound 8] |  | 148 nM |  |  |  | 
5 | CN(C)Cc1ccn2c(-c3ccnc(N)n3)c(C3CC3)nc2c1 [Compound 9] |  | 35.5 nM | 5.8 | 1.7 |  | 
6 | CC(C)Nc1nccc(-c2c(C3CC3)nc3cc(CN(C)C)ccn23)n1 [Compound 10] |  | 43.7 nM | 4.4 | 3.0 |  | 
7 | CN(C)Cc1ccn2c(-c3ccnc(Nc4ccccn4)n3)c(C3CC3)nc2c1 [Compound 11] |  | 8.71 nM |  | 2.5 | 1740 nM | 
8 | CN(C)Cc1ccn2c(-c3ccnc(Nc4ccc(N5CCN(C)CC5)cc4)n3)c(C3CC3)nc2c1 [Compound 12] |  | 7.24 nM | 6.0 | 2.1 | 112 nM | 
9 | CN(C)Cc1ccn2c(-c3ccnc(Nc4ccc(N5CCNCC5)cc4)n3)c(C3CC3)nc2c1 [Compound 13] | 53% | 4.47 nM | 6.8 | 1.5 | 200 nM | Kin sol (Kinetic solubility; 90 min, pH 7.4): 189 µM; selectivity against human kinase panel (in words) (human kinase panel): decreased level of selectivity; in vitro cytotoxicity (in words) [2]: non-cytotoxic; EC50 [2, 5]: > 10000 nM
10 | CN(C)Cc1cccn2c(-c3ccnc(N)n3)c(-c3ccc(F)cc3)nc12 [Compound 15] |  | 29.5 nM | 5.9 |  |  | logD at 12 h ([3]; octanol/phosphate buffered saline (PBS), read-out: mLogD): 1.6
11 | CN(C)Cc1ccc2nc(-c3ccc(F)cc3)c(-c3ccnc(N)n3)n2c1 [Compound 16] |  | 51.3 nM | 5.0 | 2.3 |  | 
12 | CN1CCC(Nc2ccn3c(-c4ccnc(N)n4)c(-c4ccc(F)cc4)nc3c2)C1 (stereo not shown) [Compound 20] |  | 8.51 nM | 6.0 | 2.1 | 851 nM | 
13 | CN(C)CCCNc1ccc2nc(-c3ccc(F)cc3)c(-c3ccnc(N)n3)n2c1 [Compound 21] |  | 12.6 nM | 5.7 | 2.2 |  | 
14 | CN1CCN(c2ccn3c(-c4ccnc(N)n4)c(-c4ccc(F)cc4)nc3c2)CC1 [Compound 22] |  | 3.31 nM | 5.4 | 3.1 | 263 nM | in vitro cytotoxicity (in words) [2]: did not
15 | CN1CCN(c2ccc3nc(-c4ccc(F)cc4)c(-c4ccnc(N)n4)n3c2)CC1 [Compound 23] |  | 2.63 nM | 5.8 | 2.8 | 871 nM | in vitro cytotoxicity (in words) [2]: significant activity
16 | CN1CCC(Nc2ccn3c(-c4ccnc(N)n4)c(-c4ccc(F)cc4)nc3c2)CC1 [Compound 24] | 88% | 3.63 nM | 6.2 | 2.2 | 347 nM | 
17 | CN(C)CCOc1ccn2c(-c3ccnc(N)n3)c(-c3ccc(F)cc3)nc2c1 [Compound 25] | 54% | 7.41 nM | 5.9 | 2.2 | 813 nM | 
18 | CN(C)CCNc1ccn2c(-c3ccnc(N)n3)c(-c3ccc(F)cc3)nc2c1 [Compound 26] | 80% | 2.57 nM | 6.5 | 2.1 |  | 
19 | CNc1nccc(-c2c(-c3ccc(F)cc3)nc3cc(NCCN(C)C)ccn23)n1 [Compound 27] | 93% | 2.75 nM | 6.4 | 2.2 | 525 nM | Kin sol (Kinetic solubility; 90 min, pH 7.4): 207 µM; pIC50 (PKG1β(h)): < 6; activity against human orthologue of PKG (PKG1β(h)): no activity; pIC50 (PKG1α(h)): < 6; activity against human orthologue of PKG (PKG1α(h)): no activity; selectivity against human kinase panel (in words) (human kinase panel): excellent selectivity profile; in vitro cytotoxicity (in words) [2]: non-cytotoxic; EC50 [2, 5]: > 20000 nM
20 | CN(C)CCc1ccn2c(-c3ccnc(N)n3)c(-c3ccc(F)cc3)nc2c1 [Compound 29] | 65% | 20.4 nM | 5.8 | 1.9 | 1000 nM | 

From paper PMC6857626, “Potent bicyclic inhibitors of malarial cGMP-dependent protein kinase: approaches to combining improvements in cell potency, selectivity and structural novelty” (Bioorganic & Medicinal Chemistry Letters, 2019)
